Laboratory results as given in US9428507B2, “Compounds for the treatment of malaria” (The Broad Institute, Inc., priority 2013, dated 2016).
Like-named read-outs stand apart in the source and are kept apart here.

Tested on: Dd2 strain of P. falciparum
Test: Activity against the Dd2 strain of P. falciparum (SYBR Green I, 72-h incubation)
Assay type: cell-based
Conditions: read-out: EC^50 Dd2
Procedure: The Dd2 strain of P. falciparum was cultured in complete medium (RPMI with L-glutamine, 4.3% heat-inactivated O-positive human serum, 2.08 mg/ml albumax, 0.013 mg/ml hypoxanthine, 1.17 mg/ml glucose, 0.18% NaHCO3, 0.031 M Hepes, 2.60 mM NaOH, and 0.043 mg/ml gentamicin) until the parasitemia reached 3-8%. Parasitemia was determined by checking at least 500 red blood cells from a Giemsa-stained blood smear. The Dd2 cultures along with tested O-positive red blood cells are centrifuged at room temperature at 2,000 rpm for 5 min using an Eppendorf centrifuge 581 OR with an A-4-81 rotor. The medium was aspirated off. For the compound screening, a parasite dilution at a 1% parasitemia and 1.0% hematocrit was created with screening medium (RPMI with L-glutamine, 4.16 mg/ml albumax II, 0.013 mg/ml hypoxanthine, 1.73 mg/ml glucose, 0.18% NaHCO3, 0.031M Hepes, 2.60 mM NaOH, and 0.043 mg/ml gentamicin). The suspension was gassed with 93% nitrogen, 4% carbon dioxide, and 3% oxygen and placed at 37° C. until needed. Using a liquid dispenser, 20 μl of screening medium was dispensed into 384-well, black, clear-bottom plates. With a PinTool, 100 nl of compounds dissolved in DMSO was transferred into the assay plates along with control compound (mefloquine). Next, 30 μl of the parasite suspension in screening medium was then dispensed into the assay plates such that the final parasitemia was 1%, and the final hematocrit was 1.0%. Final concentration of DMSO was 0.125%. Mefloquine at a final concentration of 20 μM and DMSO at a final concentration of 0.125% were used within the assay plates to serve as background and baseline controls, respectively. The assay plates were transferred to incubators (93% nitrogen, 4% carbon dioxide, and 3% oxygen during the 72-h incubation at 37° C.). Ten microliters of detection reagent consisting of 1 OX SYBR Green I (Invitrogen; supplied in 10,000× concentration) in lysis buffer (20 mM Tris-HCl, 5 mM EDTA, 0.16% Saponin wt/vol, 1.6% Triton X vol/vol) was dispensed into the assay plates. For optimal staining, the assay plates were left at room temperature for 24 h in the dark. The assay plates were read by using an Envision (PerkinElmer) reader, with 505 dichroic mirrors with 485-nm excitation and 530-nm emission settings, and the plate reads were from the bottom.

[1] = Plasmodium falciparum, DD2, 72 h

SMILES	EC50 [1] [µM]	EC50 [µM]
COc1ccc2c3c([nH]c2c1)C(C)(C)N(C(C)=O)CC31CCN(C(=O)OC(C)(C)C)CC1 [Compound 14, tert-butyl 2′-acetyl-7′-methoxy-1′,1′-dimethyl-1′,2′,3′,9′-tetrahydrospiro [piperidine-4,4′-pyrido[3,4-b]indole]-1-carboxylate]	0.415	
C=CCOC(=O)N1CC2(CCN(C(=O)OC(C)(C)C)CC2)c2c([nH]c3cc(OC)ccc23)[C@@H]1CO[Si](C)(C)C(C)(C)C [Compound 18, (R)-2′-allyl 1-tert-butyl 1′-(((tert-butyldimethylsilyl)oxy)methyl)-7′-methoxy-3′,9′-dihydrospiro[piperidine-4,4′-pyrido[3,4-b]indole]-1,2′(1′H)-dicarboxylate]	0.763	
COc1ccc2c3c([nH]c2c1)[C@H](CO[Si](C)(C)C(C)(C)C)N(C(C)=O)CC31CCN(CCc2ccccc2F)CC1 [Compound 19, (R)-1-(1′-(((tert-butyldimethylsilyl)oxy)methyl)-1-(2-fluorophenethyl)-7′-methoxyspiro[piperidine-4,4′-pyrido[3,4-b]indol]-2′(1′H,3′H,9′H)-yl)ethanone]	1.2	
COc1ccc2c3c([nH]c2c1)[C@H](CO)N(C(C)=O)CC31CCN(Cc2ccccc2F)CC1 [Compound 21, (R)-1-(1-(2-fluorobenzyl)-1′-(hydroxymethyl)-7′-methoxyspiro[piperidine-4,4′-pyrido[3,4-b]indol]-2′(1′H,3′H,9′H)-yl)ethanone]	4.01	
COc1ccc2c3c([nH]c2c1)[C@H](CO[Si](C)(C)C(C)(C)C)N(C(=O)C(C)(C)C)CC31CCN(C(=O)Nc2ccccc2F)CC1 [Compound 22, (R)-1′-(((tert-butyldimethylsilyl)oxy)methyl)-N-(2-fluorophenyl)-7′-methoxy-2′-pivaloyl-l′,2′,3′,9′-tetrahydrospiro[piperidine-4,4′-pyrido[3,4-b]indole]-1-carboxamide]	0.43	
COc1ccc2c3c([nH]c2c1)[C@H](CO[Si](C)(C)C(C)(C)C)N(C(C)=O)CC31CCN(C(=O)OC(C)(C)C)CC1 [Compound 24, (R)-tert-butyl 2′-acety1-1′-(((tert-butyldimethylsilyl)oxy)methyl)-7′-methoxy-1′,2′,3′,9′-tetrahydrospiro [piperidine-4,4′-pyrido[3,4-b]indole]-1-carboxylate]	1.24	
COc1ccc2c3c([nH]c2c1)[C@H](CO[Si](C)(C)C(C)(C)C)N(C(C)=O)CC31CCNCC1 [Compound 25, (R)-1-(1′-(((tert-butyldimethylsilyl)oxy)methyl)-7′-methoxyspiro[piperidine-4,4′-pyrido[3,4-b]indol]-2′(1′H,3′H,9′H)-yl)ethanone]	1.62	
COc1ccc2c3c([nH]c2c1)[C@H](CO)N(C(C)=O)CC31CCN(CCc2ccccc2F)CC1 [Compound 27, (R)-1-(1-(2-fluorophenethyl)-1′-(hydroxymethyl)-7′-methoxyspiro[piperidine-4,4′-pyrido[3,4-b]indol]-2′(1′H,3′H,9′H)-yl) ethanone]	2.73	
C=CCOC(=O)N1CC2(CCN(C(=O)Oc3ccc([N+](=O)[O-])cc3)CC2)c2c([nH]c3cc(OC)ccc23)[C@@H]1CO [Compound 28, (R)-2′-allyl 1-(4-nitrophenyl) 1′-(hydroxymethyl)-7′-methoxy-3′,9′-dihydrospiro[piperidine-4,4′-pyrido[3,4-b]indole]-1,2′(1′H)-dicarboxylate]	7.14	
COc1ccc2c3c([nH]c2c1)[C@H](CO[Si](C)(C)C(C)(C)C)N(C(C)=O)CC31CCN(C(=O)OC(C)(C)C)CC1 [Compound 29, (R)-tert-butyl 2′-acetyl-1′-(((tert-butyldimethylsilyl)oxy)methyl)-7′-methoxy-1′,2′,3′,9′-tetrahydrospiro[piperidine-4,4′-pyrido[3,4-b]indole]-1-carboxylate]		1.39
COc1ccc2c3c([nH]c2c1)[C@H](C)N(C(C)=O)CC31CCN(C(=O)OC(C)(C)C)CC1 [Compound 34, (S)-tert-butyl 2′-acetyl-7′-methoxy-1′-methyl-1′,2′,3′,9′-tetrahydrospiro[piperidine-4,4′-pyrido[3,4-b]indole]-1-carboxylate]	3.77	

Further lines, with some results ahead:

EC50 [1] [µM]	SMILES	EC50 [µM]
2.41	C=CCOC(=O)N1CC2(CCN(C(=O)Nc3ccccc3F)CC2)c2c([nH]c3cc(OC)ccc23)[C@@H]1CO [Compound 16, (R)-allyl 1-((2-fluorophenyl)carbamoyl)-1′-(hydroxymethyl)-7′-methoxy-3′,9′-dihydrospiro[piperidine-4,4′-pyrido[3,4-b]indole]-2′(1′H)-carboxylate]	
0.834	COc1ccc2c3c(n(C)c2c1)[C@H](COC(C)=O)N(C(C)=O)CC31CCN(C(=O)Nc2ccccc2F)CC1 [Compound 17, (R)-(2′-acetyl-1-((2-fluorophenyl)carbamoyl)-7′-methoxy-9′-methyl-1′,2′,3′,9′-tetrahydrospiro[piperidine-4,4′-pyrido[3,4-b]indol]-1′-yl)methylacetate]	
0.62	CCC(=O)N1CC2(CCN(C(=O)Nc3ccccc3F)CC2)c2c([nH]c3cc(OC)ccc23)[C@@H]1CO [Compound 20, (R)-N-(2-fluorophenyl)-1′-(hydroxymethyl)-7′-methoxy-2′-propionyl-1′,2′,3′,9′-tetrahydrospiro[piperidine-4,4′-pyrido[3,4-b]indole]-1-carboxamide]	
2.4	COc1ccc2c3c([nH]c2c1)[C@H](CO)N(C(=O)C(C)(C)C)CC31CCN(C(=O)Nc2ccccc2F)CC1 [Compound 23, (R)-N-(2-fluorophenyl)-1′-(hydroxymethyl)-7′-methoxy-2'-pivaloyl-1′,2′,3′,9′-tetrahydrospiro[piperidine-4,4′-pyrido[3,4-b]indole]-1-carboxamide]	
1.33	COc1ccc2c3c([nH]c2c1)[C@H](CO)NCC31CCN(C(=O)Nc2ccccc2F)CC1 [Compound 26, (R)-N-(2-fluorophenyl)-1′-(hydroxymethyl)-7′-methoxy-1′,2′,3′,9′-tetrahydrospiro [piperidine-4,4′-pyrido[3,4-b]indole]-1-carboxamide]	
7.44	COc1ccc2c3c([nH]c2c1)[C@H](C)NCC31CCN(C(=O)OC(C)(C)C)CC1 [Compound 30, (S)-tert-butyl 7′-methoxy-1′-methyl-1′,2′,3′,9′-tetrahydrospiro[piperidine-4,4′-pyrido[3,4-b]indole]-1-carboxylate]	
0.485	COc1ccc2c3c([nH]c2c1)[C@H](CN(C)C)N(C(C)=O)CC31CCN(C(=O)Nc2ccccc2F)CC1 [Compound 32, (S)-2′-acetyl-1′-((dimethylamino)methyl)-N-(2-fluoropheny1)-7′-methoxy-1′,2′,3′,9′-tetrahydrospiro[piperidine-4,4′-pyrido[3,4-b]indole]-1-carboxamide]	
2.98	COc1ccc2c3c([nH]c2c1)[C@H](CO)N(C(=O)C1CC1)CC31CCN(C(=O)Nc2ccccc2F)CC1 [Compound 33, (R)-2′-(cyclopropanecarbonyl)-N-(2-fluorophenyl)-1′-(hydroxymethyl)-7′-methoxy-1′,2′,3′,9′-tetrahydrospiro[piperidine-4,4′-pyrido[3,4-b]indole]-1-carboxamide]	
0.175 to 0.41	COc1ccc2c3c([nH]c2c1)[C@H](CO)N(C(C)=O)CC31CCN(C(=O)Nc2ccccc2)CC1 [Compound 35, (R)-2′-acetyl-1′-(hydroxymethyl)-7′-methoxy-N-phenyl-1′,2′,3′,9′-tetrahydrospiro[piperidine-4,4′-pyrido[3,4-b]indole]-1-carboxamide]	
